The values below come from patent publication EP4755375A1, “PHARMACEUTICAL COMPOSITION CONTAINING SUBSTITUTED INDOL-5-OL DERIVATIVE AND USE THEREOF” (Changshan Conjuchem Biopharmaceutical Research and …, priority 2023, dated 2025).

Molecules are shown by their SMILES. ≈ marks a conversion by molar mass, not a printed value.

Series [1] in a line: Solubility testing of solid dispersions in media with different pH values (shaker, 24 hours). In kind it is physicochemical. The note with it: 0.1mol/L HCl. The method, then: Weigh an amount of powder (equivalent to 50 mg of API) from Examples 1-7 into a 10-mL vial, add 5 mL of media with different pH values, so that the theoretical concentration of API in the sample solution was about 10 mg/mL. Shake the vials in a shaker for 24 hours, and determine the solubility. During shaking, observe the dissolution phenomenon of the powder in the solution. If the solution becomes clear, add an additional amount of sample powder. Table 4 Solubility of Solid Dispersions Prepared Using Povidone in Different Media
Weigh an amount of powder (equivalent to 50 mg of API) from Examples 9-13 into a 10-mL vial, add a corresponding volume of media with different pH values, so that the theoretical concentration of API in the solution was about 10 mg/mL (the theoretical concentration of API in the sample solution of Example 13 was about 5 mg/mL). Shake the vials in a shaker for 24 hours, and sample at 4 h and 24 h to determine the solubility. During shaking, observe the dissolution phenomenon of the powder in the solution. If the solution becomes clear, add an additional amount of sample powder. Table 7 Solubility of Solid Dispersions Prepared Using HPMC in Different Media
Weigh an amount of powder (equivalent to 50 mg of API) from Examples 14-16 into a 10-mL vial, add a corresponding volume of media with different pH values, so that the theoretical concentration of API in the sample solution was about 10 mg/mL. Shake the vials in a shaker for 24 hours, and sample at 4 h and 24 h to determine the solubility. During shaking, observe the dissolution phenomenon of the powder in the solution. If the solution becomes clear, add an additional amount of sample powder. Table 9 Solubility of Solid Dispersions Prepared Using HPC in Different Media
Weigh an amount of powder (equivalent to 50 mg of API) from Examples 17-21 into a 10-mL vial, add a corresponding volume of media with different pH values, so that the theoretical concentration of API in the sample solution was about 10 mg/mL. Shake the vials in a shaker for 24 hours, and sample at 4 h and 24 h to determine the solubility. During shaking, observe the dissolution phenomenon of the powder in the solution. If the solution becomes clear, add an additional amount of sample powder. Table 11 Solubility of Solid Dispersions Prepared Using Copovidone S630 in Different Media
Weigh an amount of powder (equivalent to 50 mg of API) from Examples 22-24 into a 10-mL vial, add a corresponding volume of media with different pH values, so that the theoretical concentration of API in the sample solution was about 10 mg/mL. Shake the vials in a shaker for 24 hours, and sample at 4 h and 24 h to determine solubility. Table 13 Solubility of Solid Dispersions Prepared Using HPMC AS in Different Media
Weigh an amount of powder(equivalent to 50 mg of API) from Examples 25-28 into a 10 mL vial, add a corresponding volume of media with different pH values, so that the theoretical concentration of API in the sample solution was about 10 mg/mL. Shake the vials in a shaker for 24 hours, and sample at 4 h and 24 h to determine the solubility. During shaking, observe the dissolution phenomenon of the powder in the solution. If the solution becomes clear, add an additional amount of sample powder. Table 15 Solubility of Solid Dispersions Prepared Using Polyethylene Glycol in Different Media […]

Series [2] in a line: Dog PK experiment for tablets. In kind it is in vivo. The following applies: plasma, beagle dogs (male, fasted), oral, dose 5 mg/kg. The method, then:
Example 59 and Example 60 were orally administered to beagle dogs (male, fasted, 3 dogs per group) at a dose of about 5 mg/kg. Example 65 was orally administered to beagle dogs (half male and half female, fasted, 8 dogs) at a dose of 50 mg/animal (about 5 mg/kg). Whole blood samples of 0.3 mL were collected at 0 min, 10 min, 15 min, 30 min, 1 h, 2 h, 3 h, 4 h, 6 h, 8 h, 12 h, and 24 h after administration. The blood samples were placed in anticoagulant tubes, gently inverted several times, and then kept on wet ice in preparation for centrifugation. Within 30 minutes after collection, the samples were centrifuged at about 2000 × g (force) at 4°C for 10 minutes to obtain plasma. The resulting plasma samples were immediately divided into two aliquots (about 75 µL each) and transferred to cryovials. The samples were maintained on wet ice throughout the processing and stored in a freezer at -75 ± 15°C until analysis. The concentrations of the test substance in the plasma samples were analyzed using an LC-MS/MS method. Table 51 Summary of Dog PK Data for Tablets

The nature of series [3]: Saturated solubility of API in different solvents/media. In kind it is physicochemical. The note with it: for solubility at 24 h: organic solvent or mixture, thermodynamic from solid, room temperature. The method, then:
The saturated solubility of the compound of the present invention in different solvents/media is shown in Table 1 (Test method: An appropriate excess amount of API was placed in an appropriate amount of solvent and shaken at room temperature for 24 hours, after which the sample solution was processed and analyzed). Among them, methanol and acetone are the optimal choices. Table 1 Saturated Solubility of the Compound of the Present Invention in Different Solvents/Media

Series [4] is described as follows: Dog PK: bioavailability of solid dispersions and API. In kind it is in vivo. The following applies: plasma, beagle dogs (male, fasted), oral, dose 5 mg/kg. The method, then: Based on the solubility data from the solid dispersion formulation examples above, the API (administration form: 10 mg/mL suspension, API suspended in 0.5% CMC-Na solution) and solid dispersions prepared using PVP K30 (drug-excipient ratios of 1:3 and 1:4, respectively) were selected for dog PK experiments. The solid dispersions were filled into hard capsules and orally administered to beagle dogs (male, fasted, 3 dogs per group) at a dose of 5 mg/kg. Whole blood samples of 0.3 mL were collected at 0 min, 10 min, 15 min, 30 min, 1 h, 2 h, 3 h, 4 h, 6 h, 8 h, 12 h, and 24 h after administration. The blood samples were placed in anticoagulant tubes, gently inverted several times, and then kept on wet ice in preparation for centrifugation. Within 30 minutes after collection, the samples were centrifuged at about 2000 × g (force) at 4°C for 10 minutes to obtain plasma. The resulting plasma samples were immediately divided into two aliquots (about 75 µL each) and transferred to cryovials. The samples were maintained on wet ice throughout the processing and stored in a freezer at -75 ± 15°C until analysis. The concentrations of the test substance in the plasma samples were analyzed using an LC-MS/MS method. Table 50 Summary of Dog PK Data for SDD Formulations

The nature of series [5]: Solubility of API in solvent combinations (visual dissolution). The following applies: organic solvent combinations of Table 2, organic solvent or mixture, thermodynamic from solid; solvent combinations of Table 2 (acetone/methanol, acetone/ethanol, with water or dichloromethane); read-out: solubility of API in the solvent combinations listed in Table 2. In kind it is physicochemical. The method, then:
The solvent compositions capable of simultaneously dissolving the compound of the present invention and the carrier materials are shown in Table 2. The detection method for the solubility of API in different solvent combinations is as follows: Weigh 20 mg of the compound of the present invention and add it to 4 mL of different solvents or solvent combinations, respectively. Gently shake and observe the dissolution phenomenon. If complete dissolution occurs, add a small amount of additional API to the above solution, continue shaking, and observe the dissolution phenomenon. […] All carrier materials listed in Table 2 are soluble in the selected solvents or solvent combinations. Table 2 Solvent Compositions Capable of Simultaneously Dissolving the Compound of the Present Invention and the Carrier

For `C/C=C/c1cc(Nc2cc(N3CCN(C)CC3)nc(Oc3cc(F)c4[nH]c(C)cc4c3F)n2)n[nH]1` [API], the “Solubility” value is 50 µg/mL (≈ 0.104 mM) in series [1] (4h, API alone, sample concentration not given); 50 µg/mL (≈ 0.104 mM) in series [1] (24h, API alone, sample concentration not given); > 5000 µg/mL in series [5]. This molecule showed a solubility at 2 h in series [1] (simulated gastric fluid, thermodynamic from solid, 2h, API alone, sample concentration not given) of 50 µg/mL (≈ 0.104 mM). For the same molecule, the solubility at 4 h in series [1] (simulated gastric fluid, thermodynamic from solid, 4h, sample Supersaturated) was 50 µg/mL (≈ 0.104 mM). Also, the solubility at 24 h in series [1] (simulated gastric fluid, thermodynamic from solid, 24h, sample Supersaturated) was 50 µg/mL (≈ 0.104 mM); in series [3] (Acetone) it was 5990 µg/mL (≈ 12.5 mM); in series [3] (Acetonitrile), 1220 µg/mL (≈ 2.54 mM); in series [3] (Ethanol) it was 5170 µg/mL (≈ 10.8 mM); in series [3] (Ethyl acetate), 4980 µg/mL (≈ 10.4 mM); in series [3] (Isopropanol), 2340 µg/mL (≈ 4.87 mM). Also, the solubility at 24 h was 8360 µg/mL (≈ 17.4 mM) in series [3] (Methanol) and 2220 µg/mL (≈ 4.62 mM) in series [3] (Propylene glycol). The AUC in series [2] and in series [4] was 59 ng·h/mL in each case. For the same molecule, the Cmax in series [2] and in series [4] was 22 ng/mL in each case. The “Solubility Description” value in series [3] (Acetone), in series [3] (Acetonitrile), in series [3] (Ethanol), in series [3] (Ethyl acetate), in series [3] (Isopropanol) and in series [3] (Methanol) was “Slightly soluble” in each case. Moreover, in series [3] (Propylene glycol), the “Solubility Description” value is “Slightly soluble”.
